This data set in a line: Chemical stability compared to CCK-8s, 8 mM phosphate pH 7.4, RP-UHPLC. The data set is classed as physicochemical. To be noted: after two weeks at 37° C. As for the experimental part:
The resulting samples were stored in HPLC vials at 5° C. and 37° C. for 2 weeks. The samples were analysed in the beginning of the experiment (t=0), after one week and after two weeks by RP-UHPLC with a mobile phase containing phosphate and with a gradient of acetonitrile. UV detection at 215 nm was used. Samples after one week and two weeks were analysed twice. The calculations were done as described above, and the results are summarised in Table 7 (average of two determinations).

Each structure is given as a SMILES string. Starred links: 1 amine or outer side, 2 acyl side, 3 side chain; linkers in the order of their positions; H or OH if unused. Non-standard residues stand in square brackets, D forms with d. Residues, ends and D or L forms follow the SMILES beside them. *: point of attachment. Phe(4-CH2SO3H) = N[C@@H](Cc1ccc(CS(=O)(=O)O)cc1)C(=O)O; C18 diacid = O=C(O)CCCCCCCCCCCCCCCCC(=O)*; γGlu = O=C(O)[C@H](CCC(=O)[*:2])N[*:1]; NMeF = CN[C@@H](Cc1ccccc1)C(=O)O; dNMeD = CN[C@H](CC(=O)O)C(=O)O; Nle = CCCC[C@H](N)C(=O)O; AEEA = NCCOCCOCC(=O)O

Regarding `CCCC[C@H](NC(=O)[C@H](Cc1ccc(CS(=O)(=O)O)cc1)NC(=O)[C@H](CC(=O)O)NC(=O)COCCOCCNC(=O)COCCOCCNC(=O)CC[C@H](NC(=O)CCCCCCCCCCCCCCCCC(=O)O)C(=O)O)C(=O)NCC(=O)N[C@@H](Cc1c[nH]c2ccccc12)C(=O)N[C@@H](CCCC)C(=O)N(C)[C@H](CC(=O)O)C(=O)N(C)[C@@H](Cc1ccccc1)C(N)=O` [Example 3, 2-[2-[2-[[2-[2-[2-[[(4S)-4-Carboxy-4-(17-carboxyheptadecanoylamino)butanoyl]amino]ethoxy]ethoxy]acetyl]amino]ethoxy]ethoxy]acetyl-Asp-Phe(4-sulfomethyl)-Nle-Gly-Trp-Nle-DMeAsp-MePhe-amide] ({C18 diacid-γGlu-AEEA-AEEA}-D[Phe(4-CH2SO3H)][Nle]GW[Nle][dNMeD][NMeF]-NH2), the “stability higher than the stability of CCK-8s” value is recorded as “about 50%”.

These data come from patent publication US20170008928A1, “NOVEL PEPTIDES AND PEPTIDE DERIVATIVES AND USES THEREOF” (Novo Nordisk A/S, priority 2015, published 2017).
